{"source": "patent US10953011B2", "about": "“Methods of treating virally associated cancers with histone deacetylase inhibitors” (priority 2019, dated 2021)", "key": {"HDAC11": {"target": "T1, HDAC11 (Homo sapiens, UniProt Q96DB2)", "T1 sequence (Q96DB2 1-347)": "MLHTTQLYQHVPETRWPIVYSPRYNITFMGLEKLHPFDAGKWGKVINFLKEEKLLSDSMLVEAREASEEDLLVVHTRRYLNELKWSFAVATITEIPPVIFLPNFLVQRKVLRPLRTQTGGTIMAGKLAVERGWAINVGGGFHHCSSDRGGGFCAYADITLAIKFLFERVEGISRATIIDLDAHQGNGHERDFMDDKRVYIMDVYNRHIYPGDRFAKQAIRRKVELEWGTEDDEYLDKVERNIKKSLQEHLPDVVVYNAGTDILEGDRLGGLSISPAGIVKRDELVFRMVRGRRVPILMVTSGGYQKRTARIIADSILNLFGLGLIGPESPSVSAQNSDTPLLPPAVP", "experiment": "in vitro HDAC inhibition assay (fluorescence)", "assay_type": "biochemical", "conditions": "1 h pre-incubation; 2 μM HDAC Substrate Class 2a; read-out: IC50 (μM) HDAC11", "method": "(§1) Briefly, all of the compounds are dissolved in DMSO. A series of dilutions of the compounds were prepared with 10% DMSO in HDAC assay buffer and 5 μl of the dilution was added to a 50 μl reaction so that the final concentration of DMSO is 1% in all of reactions. The compounds were pre-incubated in duplicate at RT for 1 hour in a mixture containing HDAC assay buffer, 5 μg BSA, HDAC enzyme (see Table 7) and a the particular HDACi. After 1 hour, the enzymatic reactions were initiated by the addition of HDAC substrate (BPS Bioscience) to a final concentration of 10 μM or 2 μM. The enzymatic reaction proceeded for 30 minutes at 37° C.\n(§2) HDAC activity assays were performed in duplicates at each concentration. The fluorescent intensity data were analyzed using the computer software, Graphpad Prism. In the absence of the compound, the fluorescent intensity (Ft) in each data set was defined as 100% activity. In the absence of HDAC, the fluorescent intensity (Fb) in each data set was defined as 0% activity. The percent activity in the presence of each compound was calculated according to the following equation: % activity=(F−Fb)/(Ft−Fb), where F=the fluorescent intensity in the presence of the compound.\n(§3) The values of % activity versus a series of compound concentrations were then plotted using non-linear regression analysis of Sigmoidal dose-response curve generated with the equation Y=B+(T−B)/1+10^((Log EC50-X)×Hill Slope), where Y=percent activity, B=minimum percent activity, T=maximum percent activity, X=logarithm of compound and Hill Slope=slope factor or Hill coefficient. The IC50 value was determined by the concentration causing a half-maximal percent activity."}, "HDAC5": {"target": "HDAC5 (Homo sapiens, UniProt Q9UQL6)", "sequence (Q9UQL6 whole entry)": "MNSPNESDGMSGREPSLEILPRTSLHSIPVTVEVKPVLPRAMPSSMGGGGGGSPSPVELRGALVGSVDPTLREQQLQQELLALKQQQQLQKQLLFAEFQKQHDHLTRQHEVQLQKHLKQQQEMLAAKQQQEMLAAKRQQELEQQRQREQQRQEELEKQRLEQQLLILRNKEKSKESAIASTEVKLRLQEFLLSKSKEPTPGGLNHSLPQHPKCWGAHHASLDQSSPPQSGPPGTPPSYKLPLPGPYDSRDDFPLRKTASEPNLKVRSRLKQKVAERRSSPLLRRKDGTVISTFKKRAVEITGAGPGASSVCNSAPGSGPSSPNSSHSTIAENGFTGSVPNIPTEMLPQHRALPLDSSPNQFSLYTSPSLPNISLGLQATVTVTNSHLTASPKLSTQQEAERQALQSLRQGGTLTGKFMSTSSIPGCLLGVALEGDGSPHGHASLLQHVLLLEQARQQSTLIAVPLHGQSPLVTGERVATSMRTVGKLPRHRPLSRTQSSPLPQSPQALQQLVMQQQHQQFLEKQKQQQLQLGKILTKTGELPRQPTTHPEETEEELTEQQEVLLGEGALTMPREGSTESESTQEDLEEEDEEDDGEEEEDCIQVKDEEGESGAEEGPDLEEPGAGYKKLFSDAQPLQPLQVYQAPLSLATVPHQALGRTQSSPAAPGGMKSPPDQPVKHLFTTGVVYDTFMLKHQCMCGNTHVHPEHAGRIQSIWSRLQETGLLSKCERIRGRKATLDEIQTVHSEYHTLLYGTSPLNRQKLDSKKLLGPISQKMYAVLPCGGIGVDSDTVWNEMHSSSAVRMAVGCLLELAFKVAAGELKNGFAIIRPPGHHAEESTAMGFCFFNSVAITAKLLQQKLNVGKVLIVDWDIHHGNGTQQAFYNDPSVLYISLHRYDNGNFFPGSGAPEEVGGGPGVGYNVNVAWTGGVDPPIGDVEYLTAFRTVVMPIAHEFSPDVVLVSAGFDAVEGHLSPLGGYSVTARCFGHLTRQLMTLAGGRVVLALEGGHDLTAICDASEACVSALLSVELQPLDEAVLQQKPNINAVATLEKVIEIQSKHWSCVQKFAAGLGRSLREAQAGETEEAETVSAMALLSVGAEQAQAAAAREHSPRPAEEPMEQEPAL", "experiment": "in vitro HDAC inhibition assay (fluorescence)", "assay_type": "biochemical", "conditions": "1 h pre-incubation; 2 μM HDAC Substrate Class 2a; read-out: IC50 (μM) HDAC5", "method": "as §1, §2, §3"}, "HDAC7": {"target": "T2, HDAC7 (Homo sapiens, UniProt Q8WUI4)", "T2 sequence (Q8WUI4 1-952)": "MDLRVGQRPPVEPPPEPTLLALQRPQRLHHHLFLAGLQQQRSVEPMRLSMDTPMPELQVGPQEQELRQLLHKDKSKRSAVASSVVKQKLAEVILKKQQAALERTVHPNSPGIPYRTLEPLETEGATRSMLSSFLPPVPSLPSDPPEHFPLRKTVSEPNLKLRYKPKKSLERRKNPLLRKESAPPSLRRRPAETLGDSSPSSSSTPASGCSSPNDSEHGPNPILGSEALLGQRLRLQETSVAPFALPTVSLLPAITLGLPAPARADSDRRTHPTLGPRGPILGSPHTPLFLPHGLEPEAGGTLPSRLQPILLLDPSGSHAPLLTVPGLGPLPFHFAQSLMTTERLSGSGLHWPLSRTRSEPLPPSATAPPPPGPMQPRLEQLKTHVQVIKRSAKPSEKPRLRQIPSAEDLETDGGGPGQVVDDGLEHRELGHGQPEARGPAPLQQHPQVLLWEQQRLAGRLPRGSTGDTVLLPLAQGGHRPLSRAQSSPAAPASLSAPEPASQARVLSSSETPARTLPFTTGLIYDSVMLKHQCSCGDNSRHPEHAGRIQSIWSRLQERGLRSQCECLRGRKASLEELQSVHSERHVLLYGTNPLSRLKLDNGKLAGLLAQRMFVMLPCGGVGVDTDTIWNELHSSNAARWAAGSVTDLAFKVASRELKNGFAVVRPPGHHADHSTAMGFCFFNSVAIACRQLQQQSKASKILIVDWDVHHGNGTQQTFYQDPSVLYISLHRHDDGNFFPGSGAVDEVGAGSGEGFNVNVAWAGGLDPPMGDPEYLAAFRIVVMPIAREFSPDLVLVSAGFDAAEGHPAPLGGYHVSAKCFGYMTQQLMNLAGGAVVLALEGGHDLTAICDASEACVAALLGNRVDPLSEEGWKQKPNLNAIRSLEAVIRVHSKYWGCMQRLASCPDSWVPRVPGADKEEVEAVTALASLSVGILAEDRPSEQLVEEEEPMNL", "experiment": "in vitro HDAC inhibition assay (fluorescence)", "assay_type": "biochemical", "conditions": "1 h pre-incubation; 2 μM HDAC Substrate Class 2a; read-out: IC50 (μM) HDAC7", "method": "as §1, §2, §3"}, "[1]": {"experiment": "Single dose pharmacokinetics of oral nanatinostat in patients", "assay_type": "in vivo, humans", "conditions": "human, serum; for AUC: read-out: AUC (ng-h/mL), geometric mean; for AUC(0-t): read-out: AUClast (ng-h/mL), geometric mean; for Cmax: read-out: Cmax (ng/mL), geometric mean; for Tmax: read-out: Tmax (h), median (range)"}, "HDAC 1-3": {"system": "HDAC 1-3", "conditions": "descriptive statement; cited from earlier work"}, "[2]": {"conditions": "5 mg, A = 5 mg VRx-3996 p.o. and 450 mg Valganciclovir p.o., single dose"}, "[3]": {"conditions": "10 mg, B = 10 mg VRx-3996 p.o. and 450 mg Valganciclovir p.o., single dose"}, "[4]": {"conditions": "10 mg, C = 10 mg VRx-3996 p.o. and 900 mg Valganciclovir p.o., single dose"}}, "note": "Read-outs that look alike come from different tables or passages of the source.", "data": [{"smiles": "O=C(NO)c1cnc(N2C[C@@H]3[C@H](C2)[C@H]3NCc2ccc3cc(F)ccc3n2)nc1", "note": "[Nanatinostat, 2-((1R,5S,6s)-6-(((6-fluoroquinolin-2-yl)methyl)amino)-3-azabicyclo[3.1.0]hexan-3-yl)-N-hydroxypyrimidine-5-carboxamide]", "values": [{"measurement": "IC50", "setting": "HDAC11", "value": 2.8, "unit": "µM"}, {"measurement": "IC50", "setting": "HDAC5", "value": 0.39, "unit": "µM"}, {"measurement": "IC50", "setting": "HDAC7", "value": 1.6, "unit": "µM"}, {"measurement": "AUC", "setting": "[1]; [2]", "value": 117, "unit": "ng·h/mL"}, {"measurement": "AUC(0-t)", "setting": "[1]; [2]", "value": 40.5, "unit": "ng·h/mL"}, {"measurement": "Cmax", "setting": "[1]; [2]", "value": 18.5, "unit": "ng/mL"}, {"measurement": "half-life", "setting": "[1]; 5 mg, A = 5 mg VRx-3996 p.o. and 450 mg Valganciclovir p.o., single dose, read-out: Half-Life (h), geometric mean (converted)", "value": 2.18, "unit": "h"}, {"measurement": "Tmax", "setting": "[1]; [2]", "value": 3, "unit": "h"}, {"measurement": "AUC", "setting": "[1]; [3]", "value": 317, "unit": "ng·h/mL"}, {"measurement": "AUC(0-t)", "setting": "[1]; [3]", "value": 165, "unit": "ng·h/mL"}, {"measurement": "Cmax", "setting": "[1]; [3]", "value": 62.6, "unit": "ng/mL"}, {"measurement": "half-life", "setting": "[1]; 10 mg, B = 10 mg VRx-3996 p.o. and 450 mg Valganciclovir p.o., single dose, read-out: Half-Life (h), geometric mean (converted)", "value": 1.17, "unit": "h"}, {"measurement": "Tmax", "setting": "[1]; [3]", "value": 2, "unit": "h"}, {"measurement": "AUC", "setting": "[1]; [4]", "value": 322, "unit": "ng·h/mL"}, {"measurement": "AUC(0-t)", "setting": "[1]; [4]", "value": 227, "unit": "ng·h/mL"}, {"measurement": "Cmax", "setting": "[1]; [4]", "value": 78.9, "unit": "ng/mL"}, {"measurement": "half-life", "setting": "[1]; 10 mg, C = 10 mg VRx-3996 p.o. and 900 mg Valganciclovir p.o., single dose, read-out: Half-Life (h), geometric mean (converted)", "value": 1.67, "unit": "h"}, {"measurement": "Tmax", "setting": "[1]; [4]", "value": 1, "unit": "h"}, {"measurement": "half-life", "setting": "[1]; humans, oral, summary of Table 6, read-out: T1/2 (converted)", "value": "~2", "unit": "h"}, {"measurement": "Activity against HDAC 1-3", "setting": "HDAC 1-3", "value": "active against HDAC 1-3"}]}]}
